Test results: patent EP3061750A1, “PYRAZOLE AMIDE COMPOUND CONTAINING DIPHENYL ETHER, AND APPLICATION THEREOF, AND PESTICIDE COMPOSITION” (Central China Normal University, priority 2013, dated 2015)
Where two headings read alike, the source gives them in different places.

Tests used:
[1] = system: Cucumber powdery mildew (Sphaerotheca uliginea); test: pot in vivo assay of bactericidal activity, cucumber powdery mildew; conditions: for pest or weed control at 200 µg/mL: Cucumis sativus, read-out: Efficacy(%) cucumber powery mildew
Source text: (§1) This test is used to determine the bactericidal activity of the compounds prepared in Example 1, Preparation Examples 1 and 2.
(§2) The targets used in the test example are rice sheath blight and cucumber powdery mildew.
Test Method: According to "Standard Practice for determination of pesticide biological activity (SOP)", pyrazole amide compound containing diphenyl ether was dispensed to 5% emulsifiable concentrates (hereinafter referred to as 5% EC), […] method (pot in vivo assay). The screening results on the two test targets of the compounds prepared in Example 1, Preparation Examples 1 and 2 were shown in Table 4.
Cucumber powdery mildew (Sphaerotheca uliginea)
A cucumber seedling with uniform growth in true leaf stage was chosen, and dried in shade for 24h after spray treatment. Fresh cucumber powdery mildew spores on the cucumber leaves were collected and washed, and filtered through a double gauze to prepare a spore suspension with concentration of about 100,000 / ml, then spray inoculation was applied. The test materials inoculated were moved into artificial climate with relative humidity of 60-70% and temperature of 21-23 °C (indoor lighting), after about 10 days, investigating and grading were carried out according to the incidence of the blank control, and the control effect was calculated according to the disease index.
(§3) Investigation method and grading standard adopted "Guidelines for the field efficacy trials of pesticides", and the control effect was calculated with the disease index. The disease index = Σ(number of diseased leaves at each grade×relative grade value) × 100/(total number of leaves×9); [formula] Control effect (%) = (disease index of control−disease index of treated) × 100/disease index of control. [formula]

[2] = system: Rice sheath blight (Rhizoctonia solani); test: pot in vivo assay of bactericidal activity, rice sheath blight; conditions: for pest or weed control at 200 µg/mL: Rhizoctonia solani, read-out: Efficacy(%) rice sheath blight
Source text: as §1, §2
Test Method: According to "Standard Practice for determination of pesticide biological activity (SOP)", pyrazole amide compound containing diphenyl ether was dispensed to 5% emulsifiable concentrates (hereinafter referred to as 5% EC), the […] method (pot in vivo assay). The screening results on the two test targets of the compounds prepared in Example 1, Preparation Examples 1 and 2 were shown in Table 4.
Rice sheath blight (Rhizoctonia solani)
Two potted rice seedlings with uniform growth in true leaf stage were chosen, and dried by air after spray treatment. The side of bacteria cake with mycelium was closely attached on the leaves, after cultured at 22-26 °C under dark light in a moisture preserving manner for 24h, then cultured with natural light for about 4 days. The diameter of disease spot of each inoculating point was measured by using a caliper after the control material was fully attacked by disease, and the control effect was calculated.
as §3

succinate dehydrogenase = molecular target: T1, succinate dehydrogenase (Sus scrofa, UniProt A5GZW8+D0VWV4+Q007T0); test: inhibitory activity on succinate dehydrogenase (DCIP reduction at 600 nm); format: biochemical, pig
T1 construct: succinate dehydrogenase, which was isolated from pig hearts; from tissue; host or cells: pig heart
Protocol: This test was used to determine the inhibitory activity on the succinate dehydrogenase of the compounds prepared in Example 1, Preparation Examples 1 and 2 .
The enzyme used in the test example was succinate dehydrogenase, which was isolated from pig hearts.
Test Method: total volume was 1.8ml, the system comprised 100mM Na2HPO4-NaH2PO4 buffer (pH7.4), 0.3mM EDTA, 20mM sodium succinate, 53µM DCIP (2,6-dichloro indophenol sodium), 2nM succinate dehydrogenase. In water bath with 23 °C of constant temperature and 600rpm magnetic stirring, the reduction of the light absorption of substrate DCIP was monitored at a wavelength of 600nm, the experimental points within the linear range were collected, that is, the experimental points in which the consumption of substrate was controlled not exceeding 5% were collected. The molar extinction coefficient of DCIP was 21mM^-1cm^-1. The reduction amount of DCIP during the reaction time was calculated and linear slope was fitted, and then the initial velocity of the reaction was obtained by deducting the baseline slope.

T1 sequence (Q007T0 29-280): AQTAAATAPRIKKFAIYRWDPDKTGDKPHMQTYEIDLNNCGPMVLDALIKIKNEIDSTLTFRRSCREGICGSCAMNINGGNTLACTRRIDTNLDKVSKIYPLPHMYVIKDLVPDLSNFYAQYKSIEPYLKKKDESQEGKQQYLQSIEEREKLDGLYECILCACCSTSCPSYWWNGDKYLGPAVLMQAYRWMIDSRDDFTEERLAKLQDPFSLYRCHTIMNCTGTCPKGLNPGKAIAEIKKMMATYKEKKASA
T1 sequence (D0VWV4 30-169): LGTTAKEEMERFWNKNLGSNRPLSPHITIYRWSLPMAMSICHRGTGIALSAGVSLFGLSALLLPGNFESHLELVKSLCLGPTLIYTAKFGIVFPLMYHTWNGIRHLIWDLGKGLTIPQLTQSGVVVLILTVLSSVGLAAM
T1 sequence (A5GZW8 57-159 limits assumed): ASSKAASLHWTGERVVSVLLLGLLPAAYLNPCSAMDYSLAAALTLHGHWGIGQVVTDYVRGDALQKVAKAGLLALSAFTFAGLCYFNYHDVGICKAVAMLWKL
T1 sequence (Q0QF01 43-664 partner): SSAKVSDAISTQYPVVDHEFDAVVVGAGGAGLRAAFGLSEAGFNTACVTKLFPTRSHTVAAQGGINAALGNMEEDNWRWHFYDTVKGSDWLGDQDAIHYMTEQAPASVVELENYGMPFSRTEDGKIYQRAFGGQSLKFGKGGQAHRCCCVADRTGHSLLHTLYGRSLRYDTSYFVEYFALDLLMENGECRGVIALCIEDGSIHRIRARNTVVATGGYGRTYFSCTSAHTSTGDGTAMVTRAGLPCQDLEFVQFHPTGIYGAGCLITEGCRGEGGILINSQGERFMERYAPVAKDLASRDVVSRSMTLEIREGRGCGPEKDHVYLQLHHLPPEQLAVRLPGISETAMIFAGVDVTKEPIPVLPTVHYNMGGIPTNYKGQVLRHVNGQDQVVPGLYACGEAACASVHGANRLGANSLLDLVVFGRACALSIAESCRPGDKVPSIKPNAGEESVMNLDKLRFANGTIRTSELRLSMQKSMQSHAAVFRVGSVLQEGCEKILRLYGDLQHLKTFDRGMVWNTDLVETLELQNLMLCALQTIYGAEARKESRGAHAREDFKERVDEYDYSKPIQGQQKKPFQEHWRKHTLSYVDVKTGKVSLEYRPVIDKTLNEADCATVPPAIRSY

Compound: COc1cc(Oc2ccccc2NC(=O)c2cn(C)nc2C(F)(F)F)cc(OC)c1OC [III-4]
- pest or weed control at 200 µg/mL [1]: 0%
- pest or weed control at 200 µg/mL [2]: 0%
- IC50 (succinate dehydrogenase): > 100 µM

Compound: Cn1cc(C(=O)Nc2ccccc2Oc2ccc(F)cc2)c(C(F)(F)F)n1 [III-3]
- pest or weed control at 200 µg/mL [1]: 0%
- pest or weed control at 200 µg/mL [2]: 57%
- IC50 (succinate dehydrogenase): > 100 µM

Compound: Cn1cc(C(=O)Nc2ccccc2Oc2cccc(Cl)c2)c(C(F)(F)F)n1 [III-1]
- pest or weed control at 200 µg/mL [1]: 22.2%
- pest or weed control at 200 µg/mL [2]: 68.6%
- IC50 (succinate dehydrogenase): 36.9 ± 1.47 µM

Compound: Cn1cc(C(=O)Nc2ccccc2Oc2ccc(Cl)cc2)c(C(F)F)n1 [III-10]
- pest or weed control at 200 µg/mL [1]: 0%
- pest or weed control at 200 µg/mL [2]: 68.3%
- IC50 (succinate dehydrogenase): 2.02 ± 1.15 µM

Compound: Cc1cccc(Oc2ccccc2NC(=O)c2cn(C)nc2C(F)F)c1C [III-14]
- pest or weed control at 200 µg/mL [1]: 0%
- pest or weed control at 200 µg/mL [2]: 65.9%
- IC50 (succinate dehydrogenase): 3.22 ± 1.33 µM

Compound: Cn1cc(C(=O)Nc2ccccc2Oc2ccccc2Cl)c(C(F)(F)F)n1 [III-8]
- pest or weed control at 200 µg/mL [1]: 0%
- pest or weed control at 200 µg/mL [2]: 81.9%
- IC50 (succinate dehydrogenase): 1.98 ± 1.39 µM

Compound: COc1cc(Oc2ccccc2NC(=O)c2cn(C)nc2C(F)F)cc(OC)c1OC [III-5]
- pest or weed control at 200 µg/mL [1]: 0%
- pest or weed control at 200 µg/mL [2]: 0%
- IC50 (succinate dehydrogenase): > 100 µM

Compound: Cc1cccc(Oc2ccccc2NC(=O)c2cn(C)nc2C(F)(F)F)c1C [III-13]
- pest or weed control at 200 µg/mL [1]: 0%
- pest or weed control at 200 µg/mL [2]: 63.2%
- IC50 (succinate dehydrogenase): 9.86 ± 1.27 µM

Compound: Cn1cc(C(=O)Nc2ccccc2Oc2ccc(C#N)cc2)c(C(F)(F)F)n1 [III-6]
- pest or weed control at 200 µg/mL [1]: 0%
- pest or weed control at 200 µg/mL [2]: 30.2%
- IC50 (succinate dehydrogenase; cells printed as "-" (footnote)): > 100 µM

Compound: Cn1cc(C(=O)Nc2ccccc2Oc2ccc(Cl)cc2)c(C(F)(F)F)n1 [III-9]
- pest or weed control at 200 µg/mL [1]: 0%
- pest or weed control at 200 µg/mL [2]: 66.3%
- IC50 (succinate dehydrogenase; succinate dehydrogenase isolated from pig hearts, pH7.4, 23 °C): 4.9 ± 1.28 µM

Compound: Cn1cc(C(=O)Nc2ccccc2Oc2ccccc2)c(C(F)(F)F)n1 [Comparative compound 12, reference compound]
- pest or weed control at 200 µg/mL [1]: 0%
- pest or weed control at 200 µg/mL [2]: 30.9%
- IC50 (succinate dehydrogenase): 19.8 ± 1.07 µM
- inhibition at 1 µM (succinate dehydrogenase; read-out: inhibition ratio(%)): 0%
- inhibition at 5 µM (succinate dehydrogenase; read-out: inhibition ratio(%)): 10%
- inhibition at 10 µM (succinate dehydrogenase; read-out: inhibition ratio(%)): 22.3%
- inhibition at 20 µM (succinate dehydrogenase; read-out: inhibition ratio(%)): 38%
- inhibition at 30 µM (succinate dehydrogenase; read-out: inhibition ratio(%)): 50.3%
- inhibition at 50 µM (succinate dehydrogenase; read-out: inhibition ratio(%)): 61.8%

Compound: Cn1cc(C(=O)Nc2ccccc2Oc2ccc(C(C)(C)C)cc2)c(C(F)F)n1 [Comparative compound 21, reference compound]
- pest or weed control at 200 µg/mL [1]: 0%
- pest or weed control at 200 µg/mL [2]: 22.3%
- IC50 (succinate dehydrogenase): 1.18 ± 0.0137 µM
- inhibition at 0.1 µM (succinate dehydrogenase; read-out: inhibition ratio(%)): 0%
- inhibition at 0.2 µM (succinate dehydrogenase; read-out: inhibition ratio(%)): 24.7%
- inhibition at 0.3 µM (succinate dehydrogenase; read-out: inhibition ratio(%)): 27.4%
- inhibition at 0.5 µM (succinate dehydrogenase; read-out: inhibition ratio(%)): 34.6%
- inhibition at 1 µM (succinate dehydrogenase; read-out: inhibition ratio(%)): 46.9%
- inhibition at 3 µM (succinate dehydrogenase; read-out: inhibition ratio(%)): 60.7%
- inhibition at 10 µM (succinate dehydrogenase; read-out: inhibition ratio(%)): 79.4%
- inhibition at 50 µM (succinate dehydrogenase; read-out: inhibition ratio(%)): 80.8%

Compound: Cn1cc(C(=O)Nc2ccccc2Oc2ccc(Cl)cc2Cl)c(C(F)(F)F)n1 [III-2]
- pest or weed control at 200 µg/mL [1]: 72.2%
- pest or weed control at 200 µg/mL [2]: 0%
- IC50 (succinate dehydrogenase): 2.7 ± 1.37 µM

Compound: Cc1cc(C)cc(Oc2ccccc2NC(=O)c2cn(C)nc2C(F)(F)F)c1 [III-15]
- pest or weed control at 200 µg/mL [1]: 0%
- pest or weed control at 200 µg/mL [2]: 55.2%
- IC50 (succinate dehydrogenase): 5.12 ± 1.04 µM

Compound: Cn1cc(C(=O)Nc2ccccc2Oc2ccc(Cl)cc2Cl)c(C(F)F)n1 [Compound I]
- pest or weed control at 200 µg/mL [1]: 100%
- efficacy on cucumber powery mildew(%) ([1]; concentration 100 mg/L): 0%
- pest or weed control at 200 µg/mL [2]: 100%
- efficacy on rice sheath bilght(%) ([2]; concentration 1 mg/L): 20.74%
- efficacy on rice sheath bilght(%) ([2]; concentration 1.5 mg/L): 45.38%
- efficacy on rice sheath bilght(%) ([2]; concentration 3.125 mg/L): 65.37%
- efficacy on rice sheath bilght(%) ([2]; concentration 6.25 mg/L): 68.77%
- efficacy on rice sheath bilght(%) ([2]; concentration 12.5 mg/L): 81.72%
- efficacy on rice sheath bilght(%) ([2]; concentration 25 mg/L): 95%
- efficacy on rice sheath bilght(%) ([2]; concentration 50 mg/L): 98%
- efficacy on rice sheath bilght(%) ([2]; concentration 100 mg/L): 100%
- IC50 (succinate dehydrogenase): 0.401 ± 0.0103 µM
- inhibition at 0.03 µM (succinate dehydrogenase; read-out: inhibition ratio(%)): 18.3%
- inhibition at 0.05 µM (succinate dehydrogenase; read-out: inhibition ratio(%)): 21.6%
- inhibition at 0.1 µM (succinate dehydrogenase; read-out: inhibition ratio(%)): 27%
- inhibition at 0.2 µM (succinate dehydrogenase; read-out: inhibition ratio(%)): 37.4%
- inhibition at 0.3 µM (succinate dehydrogenase; read-out: inhibition ratio(%)): 42.1%
- inhibition at 0.5 µM (succinate dehydrogenase; read-out: inhibition ratio(%)): 52.3%
- inhibition at 1 µM (succinate dehydrogenase; read-out: inhibition ratio(%)): 66.9%
- inhibition at 10 µM (succinate dehydrogenase; read-out: inhibition ratio(%)): 74.4%
- inhibition at 50 µM (succinate dehydrogenase; read-out: inhibition ratio(%)): 73%

Compound: Cc1nc(C(F)(F)F)c(C(=O)Nc2c(Br)cc(OC(F)(F)F)cc2Br)s1 [Thifluzamide, reference compound]
- efficacy on cucumber powery mildew(%) ([1]; concentration 12.5 mg/L): 0%
- efficacy on cucumber powery mildew(%) ([1]; concentration 25 mg/L): 22.22%
- efficacy on cucumber powery mildew(%) ([1]; concentration 50 mg/L): 62.96%
- efficacy on cucumber powery mildew(%) ([1]; concentration 100 mg/L): 100%
- efficacy on rice sheath bilght(%) ([2]; concentration 1.5 mg/L): 0%
- efficacy on rice sheath bilght(%) ([2]; concentration 3.25 mg/L): 13.38%
- efficacy on rice sheath bilght(%) ([2]; concentration 6.25 mg/L): 54.30%
- efficacy on rice sheath bilght(%) ([2]; concentration 12.5 mg/L): 61.36%
- efficacy on rice sheath bilght(%) ([2]; concentration 25 mg/L): 81.85%
- efficacy on rice sheath bilght(%) ([2]; concentration 50 mg/L): 100%
- efficacy on rice sheath bilght(%) ([2]; concentration 100 mg/L): 100%
- inhibition at 0.03 µM (succinate dehydrogenase; concentration 0.03 µM, read-out: inhibition ratio(%)): 0%
- inhibition at 0.05 µM (succinate dehydrogenase; concentration 0.05 µM, read-out: inhibition ratio(%)): 9.21%
- inhibition at 0.1 µM (succinate dehydrogenase; concentration 0.1 µM, read-out: inhibition ratio(%)): 29.7%
- inhibition at 0.2 µM (succinate dehydrogenase; concentration 0.2 µM, read-out: inhibition ratio(%)): 47.6%
- inhibition at 0.3 µM (succinate dehydrogenase; concentration 0.3 µM, read-out: inhibition ratio(%)): 59.5%
- inhibition at 0.5 µM (succinate dehydrogenase; concentration 0.5 µM, read-out: inhibition ratio(%)): 71.7%
- inhibition at 1 µM (succinate dehydrogenase; concentration 1 µM, read-out: inhibition ratio(%)): 77.9%
- inhibition at 10 µM (succinate dehydrogenase; concentration 10 µM, read-out: inhibition ratio(%)): 94.5%
- inhibition at 50 µM (succinate dehydrogenase; concentration 50 µM, read-out: inhibition ratio(%)): 96.7%
- IC50 (succinate dehydrogenase; succinate dehydrogenase isolated from pig hearts, pH7.4, 23 °C, read-out: IC50): 0.2 ± 0.0121 µM

Compound: Cc1cc(C)cc(Oc2ccccc2NC(=O)c2cn(C)nc2C(F)F)c1 [III-16]
- pest or weed control at 200 µg/mL [1]: 0%
- pest or weed control at 200 µg/mL [2]: 50%
- IC50 (succinate dehydrogenase): 2.03 ± 1.22 µM

Compound: Cn1cc(C(=O)Nc2ccccc2Oc2ccc(C(F)(F)F)cc2)c(C(F)F)n1 [III-12]
- pest or weed control at 200 µg/mL [1]: 0%
- pest or weed control at 200 µg/mL [2]: 72.3%
- IC50 (succinate dehydrogenase): 1.62 ± 1.35 µM

Compound: Cn1cc(C(=O)Nc2ccccc2Oc2ccc(C(F)(F)F)cc2)c(C(F)(F)F)n1 [III-11]
- pest or weed control at 200 µg/mL [1]: 0%
- pest or weed control at 200 µg/mL [2]: 56.3%
- IC50 (succinate dehydrogenase): 3.17 ± 1.12 µM

Compound: Cn1cc(C(=O)Nc2ccccc2Oc2ccc(C#N)cc2)c(C(F)F)n1 [III-7]
- pest or weed control at 200 µg/mL [1]: 0%
- pest or weed control at 200 µg/mL [2]: 45%
- IC50 (succinate dehydrogenase): > 100 µM
